According to PubChem BioAssay AID192 (DTP/NCI, 2004):
Where “and” joins values, the source holds several entries; their conditions need not be identical. Identical values can stand only once. Inconclusive results and toxic doses are left out. Rule for the calls: active = survival T/C of 150% or more; inactive = T/C below 125% in these data. Square brackets hold non-standard residues; d marks the D form. Peptide text beside a SMILES is read from it. * marks the point of attachment. ξ: configuration not given here. ξF = NC(Cc1ccccc1)C(=O)O; Bz = O=C(c1ccccc1)*

Tested on: BDF1 mice, B16 melanoma ip, median survival T/C
Test: NCI In Vivo Anticancer Drug Screen. Data for tumor model B16 Melanoma (intraperitoneal) in B6D2F1 (BDF1) mice
Conditions: endpoint: median survival time, higher = longer survival
Outline: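 Read-out: survival or tumor size, given as treated/control ratio. Controls received vehicle only; animals bore transplantable tumors.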

[1] = dose: 50.0 mg/kg/injection, schedule: Q01DX009 (ip), vehicle: saline with Tween-80
[2] = dose: 100.0 mg/kg/injection, schedule: Q01DX009 (ip), vehicle: saline with Tween-80
[3] = dose: 200.0 mg/kg/injection, schedule: Q01DX009 (ip), vehicle: saline with Tween-80
[4] = dose: 25.0 mg/kg/injection, schedule: Q01DX009 (ip), vehicle: saline with Tween-80
[5] = dose: 8.0 mg/kg/injection, schedule: Q01DX009 (ip), vehicle: saline
[6] = dose: 100.0 mg/kg/injection, schedule: Q01DX009 (ip), vehicle: Klucel (hydroxypropylcellulose) (HPC)
[7] = dose: 100.0 mg/kg/injection, schedule: Q04DX003 (ip), vehicle: Klucel (hydroxypropylcellulose) (HPC)
[8] = dose: 200.0 mg/kg/injection, schedule: Q04DX003 (ip), vehicle: Klucel (hydroxypropylcellulose) (HPC)
[9] = dose: 400.0 mg/kg/injection, schedule: Q04DX003 (ip), vehicle: Klucel (hydroxypropylcellulose) (HPC)
[10] = dose: 25.0 mg/kg/injection, schedule: Q01DX009 (ip), vehicle: Klucel (hydroxypropylcellulose) (HPC)
[11] = dose: 50.0 mg/kg/injection, schedule: Q01DX009 (ip), vehicle: Klucel (hydroxypropylcellulose) (HPC)
[12] = dose: 200.0 mg/kg/injection, schedule: Q01DX009 (ip), vehicle: Klucel (hydroxypropylcellulose) (HPC)
[13] = dose: 6.25 mg/kg/injection, schedule: Q01DX009 (ip), vehicle: Klucel (hydroxypropylcellulose) (HPC)
[14] = dose: 12.5 mg/kg/injection, schedule: Q01DX009 (ip), vehicle: Klucel (hydroxypropylcellulose) (HPC)

Measured: T/C

CCOC(=O)CN1CCC2CC1c1c([nH]c3ccccc13)C2c1cc2c(cc1OC)N(C)C1C(O)(C(=O)OC)C(OC(C)=O)C3(CC)C=CCN4CCC21C43 (stereo not drawn)
inactive: dose: 0.06 mg/kg/injection, schedule: Q01DX009 (ip), vehicle: other 96 % of control | dose: 0.13 mg/kg/injection, schedule: Q01DX009 (ip), vehicle: other 108 % of control | dose: 0.5 mg/kg/injection, schedule: Q01DX009 (ip), vehicle: other 96 % of control | dose: 1.0 mg/kg/injection, schedule: Q01DX009 (ip), vehicle: other 104 % of control | dose: 2.0 mg/kg/injection, schedule: Q01DX009 (ip), vehicle: other 117 % of control

O=C(CNC(=O)c1ccccc1)NCC(=O)NC(Cc1ccccc1)C(=O)O (stereo not drawn) (Bz-Gly-Gly-[ξF]-OH)
inactive: [1] 90 % of control | [2] 87 % of control | [3] 90 % of control

CN(C)c1ccc(/C=C2\C=Cc3ccccc32)cc1
inactive: [1] 92 % of control | [2] 89 % of control | [3] 92 % of control

Cc1ccc(NS(=O)(=O)c2ccc(Cl)cc2)cc1Cl
inactive: [4] 99 % of control | [1] 99 % of control | [2] 95 % of control

CC1(C)N=C(N)N=C(N)N1c1ccc(CCCCc2cccc(S(=O)(=O)F)c2)c(Cl)c1
inactive: [5] 108 % of control | dose: 12.0 mg/kg/injection, schedule: Q01DX009 (ip), vehicle: saline 116 % of control | dose: 18.0 mg/kg/injection, schedule: Q01DX009 (ip), vehicle: saline 118 % of control | dose: 27.0 mg/kg/injection, schedule: Q01DX009 (ip), vehicle: saline 124 % of control

Cc1cc2nc(CO)[nH]c2cc1C
inactive: [6] 111 % of control | [7] 100 % of control | [8] 94 % of control | [9] 97 % of control

COc1ccc2c(c1O)-c1cccc3c1[C@@H](C2)N(CCCl)CC3
inactive: dose: 4.0 mg/kg/injection, schedule: Q01DX009 (ip), vehicle: saline 91 % of control and 116 % of control | [5] 97 % of control and 120 % of control | dose: 16.0 mg/kg/injection, schedule: Q01DX009 (ip), vehicle: saline 97 % of control and 111 % of control

COC(=O)c1ccc(C(=O)OC)[n+]([O-])c1
inactive: dose: 100.0 mg/kg/injection, schedule: Q04DX003 (ip), vehicle: saline 105 % of control | dose: 200.0 mg/kg/injection, schedule: Q04DX003 (ip), vehicle: saline 112 % of control | dose: 400.0 mg/kg/injection, schedule: Q04DX003 (ip), vehicle: saline 105 % of control

C=Cc1c2[n-]c(c1C)/C=c1\[n-]/c(c(C)c1C=C)=C\c1[n-]c(c(CCC(=O)O)c1C)/C=c1\[n-]/c(c(C)c1CCC(=O)O)=C\2.[Co]
inactive: [10] 95 % of control | [11] 94 % of control | [6] 92 % of control | [12] 87 % of control | dose: 1:1.0 dilution, schedule: Q01DX009 (ip), vehicle: saline 90 % of control | dose: 1:2.0 dilution, schedule: Q01DX009 (ip), vehicle: saline 99 % of control | dose: 1:4.0 dilution, schedule: Q01DX009 (ip), vehicle: saline 105 % of control | dose: 1:8.0 dilution, schedule: Q01DX009 (ip), vehicle: saline 112 % of control

CCCC/C=C/CCCCCCCC(=O)OCCCCCCCCCCCCCCCC
inactive: dose: 12.5 mg/kg/injection, schedule: Q01DX009 (ip), vehicle: saline with Tween-80 100 % of control | [4] 101 % of control | [1] 94 % of control | [2] 94 % of control

C=C1C(=O)OC2C1CCC(C)C1CCC(=O)OC12C (stereo not drawn)
inactive: dose: 3.13 mg/kg/injection, schedule: Q01DX009 (ip), vehicle: Klucel (hydroxypropylcellulose) (HPC) 97 % of control | [13] 103 % of control | [14] 100 % of control | [10] 101 % of control

CC(=O)O[C@H]1CC[C@H]2[C@@H]3CC[C@H]4CC=C(C#N)C[C@]4(C)[C@H]3CC[C@]12C
inactive: [14] 86 % of control | [10] 94 % of control | [11] 88 % of control

O=c1[nH]c(Cl)ncc1F
inactive: dose: 37.5 mg/kg/injection, schedule: Q01DX009 (ip), vehicle: Klucel (hydroxypropylcellulose) (HPC) 87 % of control

COc1ccc(NC2=CC(C)(C(=O)O)OC2=O)cc1 (stereo not drawn)
inactive: dose: 12.5 mg/kg/injection, schedule: Q04DX003 (ip), vehicle: saline with Tween-80 93 % of control | dose: 25.0 mg/kg/injection, schedule: Q04DX003 (ip), vehicle: saline with Tween-80 102 % of control | dose: 50.0 mg/kg/injection, schedule: Q04DX003 (ip), vehicle: saline with Tween-80 100 % of control

CCN(CC)CCOCCO
inactive: dose: 25.0 mg/kg/injection, schedule: Q01DX009 (ip), vehicle: suspension in saline 107 % of control | dose: 50.0 mg/kg/injection, schedule: Q01DX009 (ip), vehicle: suspension in saline 95 % of control | dose: 100.0 mg/kg/injection, schedule: Q01DX009 (ip), vehicle: suspension in saline 105 % of control | dose: 200.0 mg/kg/injection, schedule: Q01DX009 (ip), vehicle: suspension in saline 96 % of control

O=[N+]([O-])c1ccc([S][Pb]([c]2ccccc2)([c]2ccccc2)[c]2ccccc2)cc1
inactive: dose: 6.25 mg/kg/injection, schedule: Q04DX003 (ip), vehicle: Klucel (hydroxypropylcellulose) (HPC) 94 % of control | dose: 12.5 mg/kg/injection, schedule: Q04DX003 (ip), vehicle: Klucel (hydroxypropylcellulose) (HPC) 97 % of control | dose: 25.0 mg/kg/injection, schedule: Q04DX003 (ip), vehicle: Klucel (hydroxypropylcellulose) (HPC) 93 % of control | dose: 50.0 mg/kg/injection, schedule: Q04DX003 (ip), vehicle: Klucel (hydroxypropylcellulose) (HPC) 88 % of control

Cc1ccc(CNc2ccc(Cl)cc2)cc1
inactive: [11] 91 % of control | [6] 94 % of control

CC(C)(C)c1ccc(CN2CCN(C(c3ccccc3)c3ccc(Cl)cc3)CC2)cc1 (stereo not drawn)
inactive: dose: 0.39 mg/kg/injection, schedule: Q01DX009 (ip), vehicle: Klucel (hydroxypropylcellulose) (HPC) 86 % of control | dose: 3.12 mg/kg/injection, schedule: Q01DX009 (ip), vehicle: Klucel (hydroxypropylcellulose) (HPC) 95 % of control | [13] 90 % of control | [14] 87 % of control | dose: 175.0 nanograms/kg/injection, schedule: Q01DX009 (ip), vehicle: Klucel (hydroxypropylcellulose) (HPC) 105 % of control | dose: 350.0 nanograms/kg/injection, schedule: Q01DX009 (ip), vehicle: Klucel (hydroxypropylcellulose) (HPC) 105 % of control | dose: 700.0 nanograms/kg/injection, schedule: Q01DX009 (ip), vehicle: Klucel (hydroxypropylcellulose) (HPC) 101 % of control | dose: 1400.0 nanograms/kg/injection, schedule: Q01DX009 (ip), vehicle: Klucel (hydroxypropylcellulose) (HPC) 105 % of control | dose: 2800.0 nanograms/kg/injection, schedule: Q01DX009 (ip), vehicle: Klucel (hydroxypropylcellulose) (HPC) 107 % of control

Cc1ccc(Cl)cc1NC(=O)Nc1ccccc1Cl
inactive: dose: 0.78 mg/kg/injection, schedule: Q01DX009 (ip), vehicle: saline with Tween-80 88 % of control | dose: 1.56 mg/kg/injection, schedule: Q01DX009 (ip), vehicle: saline with Tween-80 90 % of control | dose: 3.13 mg/kg/injection, schedule: Q01DX009 (ip), vehicle: saline with Tween-80 93 % of control | dose: 6.25 mg/kg/injection, schedule: Q01DX009 (ip), vehicle: saline with Tween-80 90 % of control | [10] 89 % of control

CCN(CC)Cc1ccccn1
inactive: dose: 25.0 mg/kg/injection, schedule: Q01DX009 (ip), vehicle: saline 100 % of control | dose: 50.0 mg/kg/injection, schedule: Q01DX009 (ip), vehicle: saline 97 % of control | dose: 100.0 mg/kg/injection, schedule: Q01DX009 (ip), vehicle: saline 100 % of control

O=C(O)C(=O)O.O=C(O)C(=O)O.OO.OO.[Nb]
inactive: dose: 3.13 mg/kg/injection, schedule: Q01DX009 (ip), vehicle: water 100 % of control | dose: 6.25 mg/kg/injection, schedule: Q01DX009 (ip), vehicle: water 101 % of control | dose: 12.5 mg/kg/injection, schedule: Q01DX009 (ip), vehicle: water 103 % of control | dose: 25.0 mg/kg/injection, schedule: Q01DX009 (ip), vehicle: water 112 % of control | dose: 50.0 mg/kg/injection, schedule: Q01DX009 (ip), vehicle: water 96 % of control

O=C(C(=O)c1cc(Br)ccc1O)c1cc(Br)ccc1O
inactive: [6] 96 % of control | [12] 106 % of control

CCOC(=O)C(NC(C)=O)C(=O)OCC
inactive: [7] 90 % of control | [8] 102 % of control | [9] 95 % of control
